According to ChEMBL document CHEMBL3244082, “5-allyl-9-oxobenzomorphans. 3. Potent narcotic antagonists and analgesics-antagonists in the series of substituted 2',9beta-dihydroxy-6,7-benzomorphans” (1977):

Experiments:
Assay type in all cases: functional
Mus musculus [1] = assay: Analgesic activity in sc dosed mouse assessed as reduction in phenylquinone-induced writhing administered 15 mins prior to phenylquinone-challenge measured up to 10 mins
Mus musculus [2] = assay: Analgesic activity in mouse assessed as reduction in phenylquinone-induced writhing at 2.5 mg/kg, sc administered 15 mins prior to phenylquinone-challenge measured up to 10 mins relative to control; design: scale not given: the % may be the effect or the level left; settings: route subcutaneous
Mus musculus [3] = assay: Analgesic activity in mouse assessed as reduction in phenylquinone-induced writhing at 1.25 mg/kg, sc administered 15 mins prior to phenylquinone-challenge measured up to 10 mins relative to control; design: scale not given: the % may be the effect or the level left; settings: route subcutaneous
Mus musculus [4] = assay: Narcotic antagonist activity in sc dosed mouse assessed as inhibition of oxymorphone-induced straub tail response administered 10 mins post oxymorphone-challenge
Mus musculus [5] = assay: Analgesic activity in mouse assessed as reduction in phenylquinone-induced writhing at 40 mg/kg, sc administered 15 mins prior to phenylquinone-challenge measured up to 10 mins relative to control; design: scale not given: the % may be the effect or the level left; settings: route subcutaneous
Mus musculus [6] = assay: Analgesic activity in mouse assessed as reduction in phenylquinone-induced writhing at 20 mg/kg, sc administered 15 mins prior to phenylquinone-challenge measured up to 10 mins relative to control; design: scale not given: the % may be the effect or the level left; settings: route subcutaneous
Rattus norvegicus [7] = assay: Narcotic antagonist activity in sc dosed rat assessed as reversal of morphine-induced analgesia by tail-flick test
Rattus norvegicus [8] = assay: Narcotic antagonist activity in sc dosed rat assessed as reversal of oxymorphone-induced loss of righting reflex
Rattus norvegicus [9] = assay: Analgesic activity in sc dosed rat assessed as reduction in phenylquinone-induced writhing administered 15 mins prior to phenylquinone-challenge measured up to 10 mins
Mus musculus [10] = assay: Analgesic activity in mouse assessed as reduction in phenylquinone-induced writhing at 10 mg/kg, sc administered 15 mins prior to phenylquinone-challenge measured up to 10 mins relative to control; design: scale not given: the % may be the effect or the level left; settings: route subcutaneous
Mus musculus [11] = assay: Narcotic antagonist activity in mouse assessed as inhibition of oxymorphone-induced straub tail response at 5 mg/kg, sc administered 10 mins post oxymorphone-challenge relative to control; settings: route subcutaneous
Mus musculus [12] = assay: Narcotic antagonist activity in mouse assessed as inhibition of oxymorphone-induced straub tail response at 2.5 mg/kg, sc administered 10 mins post oxymorphone-challenge relative to control; settings: route subcutaneous
Mus musculus [13] = assay: Analgesic activity in po dosed mouse by hot plate test
Mus musculus [14] = assay: Analgesic activity in po dosed mouse assessed as increase in response time by hot plate test relative to control
[15] = Mus musculus, sc, read-out: ED50
[16] = Mus musculus, sc, 10 min, read-out: ED50

`C=CC[C@]12CCN(C)[C@H](Cc3ccc(O)cc31)[C@H]2O` was tested, and the ED50 (Mus musculus [1]; [15]) was 1.9 mg/kg, the Activity (Mus musculus [2]) was 78% and the Activity (Mus musculus [3]) was 1.25%. It also gave an ED50 (Mus musculus [4]; [16]) of over 40 mg/kg.

Work on `C=CC[C@]12CCN(CC3CC3)[C@H](Cc3ccc(O)cc31)[C@H]2O` yielded an ED50 (Mus musculus [4]; [16]) of 0.5 mg/kg.

`C=CC[C@]12CCN(CC3CCC3)[C@H](Cc3ccc(O)cc31)[C@H]2O` was tested, and the ED50 (Mus musculus [1]; [15]) was 0.3 mg/kg and the ED50 (Mus musculus [4]; [16]) was 1.8 mg/kg.

`CCC[C@]12CCN(CC3CC3)[C@H](Cc3ccc(O)cc31)[C@H]2O` gave an ED50 (Mus musculus [1]; [15]) of 0.07 mg/kg and an ED50 (Mus musculus [4]; [16]) of 0.62 mg/kg.

`CCC[C@]12CCN(CC3CCC3)[C@H](Cc3ccc(O)cc31)[C@H]2O` showed an ED50 (Mus musculus [1]; [15]) of 0.24 mg/kg and an ED50 (Mus musculus [4]; [16]) of 2.5 mg/kg.

`CCC[C@]12CCN(CC)[C@H](Cc3ccc(O)cc31)[C@@]2(C)O` was tested, and the ED50 (Mus musculus [1]; [15]) was 2.1 mg/kg and the ED50 (Mus musculus [4]; [16]) was over 40 mg/kg.

`C=CC[C@]12CCN(CC)[C@H](Cc3ccc(O)cc31)[C@@]2(C)O.O=C(O)C(=O)O` gave an ED50 (Mus musculus [1]; [15]) of 2 mg/kg and an ED50 (Mus musculus [4]; [16]) of over 40 mg/kg.

`C=CC[C@]12CCN(CC3CC3)[C@H](Cc3ccc(O)cc31)[C@@]2(C)O` showed an ED50 (Mus musculus [1]; [15]) of 45 mg/kg.

Work on `C=CC[C@]12CCN(Cc3ccco3)[C@H](Cc3ccc(O)cc31)[C@@]2(C)O.O=C(O)C(=O)O` yielded an ED50 (Mus musculus [1]; [15]) of 36 mg/kg, an Activity (Mus musculus [5]) of 66% and an Activity (Mus musculus [6]) of 0%. The ED50 (Mus musculus [4]; [16]) was 1.3 mg/kg.

Work on `CCC[C@]12CCN(CC3CC3)[C@H](Cc3ccc(O)cc31)[C@@]2(C)O` yielded an ED50 (Rattus norvegicus [7]) of 0.008 mg/kg, an ED50 (Rattus norvegicus [8]) of 0.013 mg/kg and an ED50 (Rattus norvegicus [9]) of 30 mg/kg. The ED50 (Mus musculus [1]; [15]) was 44 mg/kg and the ED50 (Mus musculus [4]; [16]) was 0.074 mg/kg.

Compound `CCC[C@]12CCN(CC3CCC3)[C@H](Cc3ccc(O)cc31)[C@@]2(C)O.Cl` has an ED50 (Rattus norvegicus [7]) of 0.084 mg/kg, an ED50 (Mus musculus [1]; [15]) of 0.18 mg/kg and an ED50 (Mus musculus [4]; [16]) of 1.17 mg/kg.

Compound `CC1C[C@]23CCN(C)[C@H](Cc4ccc(O)cc42)[C@H]3O1` (some centres not stated) has an ED50 (Mus musculus [1]; [15]) of 19 mg/kg, an Activity (Mus musculus [6]) of 63% and an Activity (Mus musculus [10]) of 0%. The ED50 (Mus musculus [4]; [16]) was over 40 mg/kg.

`CC1C[C@]23CCN(C)[C@H](Cc4ccc(O)cc42)[C@@]3(C)O1` (some centres not stated) gave an ED50 (Mus musculus [1]; [15]) of 18 mg/kg, an Activity (Mus musculus [6]) of 65% and an Activity (Mus musculus [10]) of 5%. The ED50 (Mus musculus [4]; [16]) was over 40 mg/kg.

`CC1C[C@]23CCN(C4CC4)[C@H](Cc4ccc(O)cc42)[C@H]3O1` (some centres not stated) gave an ED50 (Mus musculus [1]; [15]) of 30 mg/kg, an Activity (Mus musculus [5]) of 67% and an Activity (Mus musculus [6]) of 23%. It also gave an ED50 (Mus musculus [4]; [16]) of 8 mg/kg.

`CC1C[C@]23CCN(C4CC4)[C@H](Cc4ccc(O)cc42)[C@@]3(C)O1` (some centres not stated) showed an ED50 (Mus musculus [1]; [15]) of over 40 mg/kg and an ED50 (Mus musculus [4]; [16]) of 0.63 mg/kg.

`CC1C[C@]23CCN(C4CCC4)[C@H](Cc4ccc(O)cc42)[C@@]3(C)O1` (some centres not stated) was tested, and the ED50 (Mus musculus [1]; [15]) was 40 mg/kg, the Activity (Mus musculus [5]) was 50% and the Activity (Mus musculus [6]) was 33%. For the same compound, the ED50 (Mus musculus [4]; [16]) was 3 mg/kg, the ED50 (Mus musculus [11]) was 100 mg/kg and the ED50 (Mus musculus [12]) was 33 mg/kg.

In the case of `CC1C[C@]23CCN(C)[C@H](Cc4ccccc42)[C@H]3O1` (some centres not stated), the ED50 (Mus musculus [13]) is reported as 30 mg/kg, the “%max” value (Mus musculus [14]) is reported as 16% and the ED50 (Mus musculus [4]; [16]) is reported as over 40 mg/kg.

With `CC1C[C@]23CCN(C)[C@H](Cc4ccccc42)[C@@]3(C)O1.Cl` (some centres not stated) the ED50 (Mus musculus [13]) was 16 mg/kg, the “%max” value (Mus musculus [14]) was 16% and the ED50 (Mus musculus [4]; [16]) was over 40 mg/kg.

For `Br.CN1CC[C@]23CC(CBr)O[C@]2(C)[C@H]1Cc1ccccc13` (some centres not stated), the ED50 (Mus musculus [13]) was 64 mg/kg, the “%max” value (Mus musculus [14]) was 32% and the ED50 (Mus musculus [4]; [16]) was over 40 mg/kg.

With `CN(C)CC1C[C@]23CCN(C)[C@H](Cc4ccccc42)[C@@]3(C)O1.Cl` (some centres not stated) the ED50 (Mus musculus [13]) was over 40 mg/kg and the ED50 (Mus musculus [4]; [16]) was over 40 mg/kg.

In the case of `C=CC[C@]12CCN(CC3CC3)[C@H](Cc3ccc(O)cc31)[C@@]2(C)O.O=C(O)C(O)C(O)C(=O)O` (stereo in doubt; (+)-23a), the ED50 (Mus musculus [1]) is reported as over 40 mg/kg and the ED50 (Mus musculus [4]) is reported as over 40 mg/kg.

In the case of `C=CC[C@]12CCN(CC3CCC3)[C@H](Cc3ccc(O)cc31)[C@@]2(C)O.O=C(O)C(O)C(O)C(=O)O` (stereo in doubt; (+)-23b), the ED50 (Mus musculus [1]) is reported as over 40 mg/kg and the ED50 (Mus musculus [4]) is reported as over 40 mg/kg.

In the case of `C=CC[C@]12CCN(CC3CC3)[C@H](Cc3ccc(O)cc31)[C@@]2(C)O.O=C(O)C(O)C(O)C(=O)O` (stereo in doubt; (-)-23a), the ED50 (Rattus norvegicus [7]) is reported as 0.006 mg/kg, the ED50 (Rattus norvegicus [9]) is reported as 8 mg/kg and the ED50 (Mus musculus [1]; [15]) is reported as 44 mg/kg. For the same compound, the ED50 (Mus musculus [4]) was 0.08 mg/kg.

In the case of `C=CC[C@]12CCN(CC3CCC3)[C@H](Cc3ccc(O)cc31)[C@@]2(C)O.O=C(O)C(O)C(O)C(=O)O` (stereo in doubt; (-)-23b), the ED50 (Rattus norvegicus [7]) is reported as 0.08 mg/kg, the ED50 (Rattus norvegicus [8]) is reported as 0.05 mg/kg and the ED50 (Rattus norvegicus [9]) is reported as 0.01 mg/kg. It also gave an ED50 (Mus musculus [1]) of 0.06 mg/kg and an ED50 (Mus musculus [4]) of 0.43 mg/kg.

`Oc1ccc2c(c1)[C@@]13CCCC[C@@]1(O)[C@@H](C2)N(CC1CCC1)CC3` [BUTORPHANOL] showed an ED50 (Rattus norvegicus [7]) of 0.43 mg/kg, an ED50 (Rattus norvegicus [8]) of 0.27 mg/kg and an ED50 (Rattus norvegicus [9]) of 0.04 mg/kg. It also gave an ED50 (Mus musculus [1]; [15]) of 0.05 mg/kg and an ED50 (Mus musculus [4]; [16]) of 0.98 mg/kg.

`Oc1ccc2c(c1)[C@@]13CCCC[C@@]1(O)[C@@H](C2)N(CC1CC1)CC3` [OXILORPHAN] gave an ED50 (Rattus norvegicus [7]) of 0.012 mg/kg, an ED50 (Rattus norvegicus [8]) of 0.03 mg/kg and an ED50 (Rattus norvegicus [9]) of 8 mg/kg. The ED50 (Mus musculus [1]; [15]) was 13 mg/kg and the ED50 (Mus musculus [4]; [16]) was 0.19 mg/kg.
